According to PubChem BioAssay AID248 (DTP/NCI, 2004):
Values joined by “and” are separate entries in the source; they are usually repeats but may differ in a detail not shown here. Equal values may be shown once. Inconclusive results and toxic doses are left out. Rule as the data show it: active = T/C of 150% or more; inactive = T/C below 125%.

Tested on: L1210 leukemia ip in BDF1 mice, survival T/C
Test: NCI In Vivo Anticancer Drug Screen. Data for tumor model L1210 Leukemia (intraperitoneal) in B6D2F1 (BDF1) mice
Conditions: endpoint: mean survival time, higher = longer survival
Summary of the method: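 Ratio derived from survival: compound-dosed mice over vehicle-dosed mice, all bearing a transplantable tumor.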

[1] = dose: 12.5 mg/kg/injection, schedule: Q04DX003 (ip), vehicle: Klucel (hydroxypropylcellulose) (HPC)
[2] = dose: 25.0 mg/kg/injection, schedule: Q04DX003 (ip), vehicle: Klucel (hydroxypropylcellulose) (HPC)
[3] = dose: 50.0 mg/kg/injection, schedule: Q01DX009 (ip), vehicle: Klucel (hydroxypropylcellulose) (HPC)
[4] = dose: 50.0 mg/kg/injection, schedule: Q04DX003 (ip), vehicle: Klucel (hydroxypropylcellulose) (HPC)
[5] = dose: 100.0 mg/kg/injection, schedule: Q01DX001 (ip), vehicle: Klucel (hydroxypropylcellulose) (HPC)
[6] = dose: 100.0 mg/kg/injection, schedule: Q04DX003 (ip), vehicle: Klucel (hydroxypropylcellulose) (HPC)
[7] = dose: 50.0 mg/kg/injection, schedule: Q01DX001 (ip), vehicle: saline
[8] = dose: 100.0 mg/kg/injection, schedule: Q01DX001 (ip), vehicle: saline
[9] = dose: 200.0 mg/kg/injection, schedule: Q01DX001 (ip), vehicle: saline
[10] = dose: 400.0 mg/kg/injection, schedule: Q01DX001 (ip), vehicle: saline
[11] = dose: 200.0 mg/kg/injection, schedule: Q04DX002 (ip), vehicle: Klucel (hydroxypropylcellulose) (HPC)
[12] = dose: 50.0 mg/kg/injection, schedule: Q01DX001 (ip), vehicle: carboxymethylcellulose (CMC)
[13] = dose: 100.0 mg/kg/injection, schedule: Q01DX001 (ip), vehicle: carboxymethylcellulose (CMC)
[14] = dose: 200.0 mg/kg/injection, schedule: Q01DX001 (ip), vehicle: carboxymethylcellulose (CMC)
[15] = dose: 400.0 mg/kg/injection, schedule: Q01DX001 (ip), vehicle: carboxymethylcellulose (CMC)
[16] = dose: 100.0 mg/kg/injection, schedule: Q01DX009 (ip), vehicle: saline with Tween-80
[17] = dose: 200.0 mg/kg/injection, schedule: Q01DX009 (ip), vehicle: saline with Tween-80
[18] = dose: 100.0 mg/kg/injection, schedule: Q04DX002 (ip), vehicle: Klucel (hydroxypropylcellulose) (HPC)
[19] = dose: 400.0 mg/kg/injection, schedule: Q04DX002 (ip), vehicle: Klucel (hydroxypropylcellulose) (HPC)
[20] = dose: 100.0 mg/kg/injection, schedule: Q01DX009 (ip), vehicle: Klucel (hydroxypropylcellulose) (HPC)
[21] = dose: 200.0 mg/kg/injection, schedule: Q01DX009 (ip), vehicle: Klucel (hydroxypropylcellulose) (HPC)
[22] = dose: 100.0 mg/kg/injection, schedule: Q04DX003 (ip), vehicle: saline with Tween-80
[23] = dose: 200.0 mg/kg/injection, schedule: Q04DX003 (ip), vehicle: saline with Tween-80
[24] = dose: 400.0 mg/kg/injection, schedule: Q04DX003 (ip), vehicle: saline with Tween-80

Measured: T/C

COc1ccc(COC(=O)N=[N+]=[N-])cc1
inactive: [1] 112 % of control | dose: 25.0 mg/kg/injection, schedule: Q01DX009 (ip), vehicle: Klucel (hydroxypropylcellulose) (HPC) 98 % of control | [2] 110 % of control | [3] 91 % of control | [4] 105 % of control | [5] 98 % of control | [6] 105 % of control

O=C1NC(=O)C(c2ccc(F)cc2)N1 (stereo unspecified)
inactive: [7] 100 % of control | [8] 100 % of control | [9] 97 % of control | [10] 97 % of control

Cc1ccc(N=NC2C(=O)c3ccccc3C2=O)cc1
inactive: [7] 100 % of control | [8] 100 % of control | [9] 97 % of control | [10] 103 % of control

CC(C)CN=C(N)CSS(=O)(=O)O
inactive: dose: 12.5 mg/kg/injection, schedule: Q04DX002 (ip), vehicle: Klucel (hydroxypropylcellulose) (HPC) 102 % of control | dose: 25.0 mg/kg/injection, schedule: Q04DX002 (ip), vehicle: Klucel (hydroxypropylcellulose) (HPC) 105 % of control | dose: 50.0 mg/kg/injection, schedule: Q04DX002 (ip), vehicle: Klucel (hydroxypropylcellulose) (HPC) 94 % of control | [11] 94 % of control

C[N+](C)(CCOc1ccccc1)Cc1cccs1
inactive: [7] 109 % of control | [8] 97 % of control

Cc1ccc(N=Cc2cc([N+](=O)[O-])ccc2O)cc1
inactive: dose: 87.5 mg/kg/injection, schedule: Q04DX003 (ip), vehicle: Klucel (hydroxypropylcellulose) (HPC) 102 % of control | dose: 175.0 mg/kg/injection, schedule: Q04DX003 (ip), vehicle: Klucel (hydroxypropylcellulose) (HPC) 92 % of control | dose: 350.0 mg/kg/injection, schedule: Q04DX003 (ip), vehicle: Klucel (hydroxypropylcellulose) (HPC) 97 % of control

CCN(CC)C(C)(C)COC(=O)c1ccc([N+](=O)[O-])cc1
inactive: dose: 222.0 mg/kg/injection, schedule: Q01DX Z (ip), vehicle: methylcellulose (MC) 121 % of control | dose: 333.0 mg/kg/injection, schedule: Q01DX Z (ip), vehicle: methylcellulose (MC) 101 % of control | dose: 500.0 mg/kg/injection, schedule: Q01DX Z (ip), vehicle: methylcellulose (MC) 96 % of control

CC1=C(C(=O)O)C(C)CC(=O)N1c1ccccc1 (stereo unspecified)
inactive: [12] 102 % of control | [13] 96 % of control | [14] 93 % of control | [15] 96 % of control

C=CC(C)(O)C(C)(C)C (stereo unspecified)
inactive: dose: 50.0 mg/kg/injection, schedule: Q01DX009 (ip), vehicle: saline with Tween-80 100 % of control | [16] 96 % of control | [17] 100 % of control

O=[N+]([O-])c1cccc(/C=C/C=C/c2ccc(Cl)c(Cl)c2)c1
inactive: [18] 100 % of control | [11] 93 % of control | [19] 96 % of control

Nc1nc(-c2cccc(NC(=O)c3ccc(S(=O)(=O)F)cc3)c2)nc2[nH]ncc12
inactive: dose: 25.0 mg/kg/injection, schedule: Q01DX001 (ip), vehicle: Klucel (hydroxypropylcellulose) (HPC) 86 % of control | dose: 50.0 mg/kg/injection, schedule: Q01DX001 (ip), vehicle: Klucel (hydroxypropylcellulose) (HPC) 94 % of control | [5] 86 % of control

OCCN1CCN(CC/C=C2\c3ccccc3COc3ccc(Cl)cc32)CC1
inactive: dose: 0.78 mg/kg/injection, schedule: Q03HX024 (ip), vehicle: saline 97 % of control | dose: 1.56 mg/kg/injection, schedule: Q03HX024 (ip), vehicle: saline 94 % of control | dose: 2.0 mg/kg/injection, schedule: Q01DX009 (ip), vehicle: saline 88 % of control | dose: 3.12 mg/kg/injection, schedule: Q01DX009 (ip), vehicle: saline 114 % of control and 123 % of control | dose: 3.12 mg/kg/injection, schedule: Q03HX024 (ip), vehicle: saline 96 % of control | dose: 3.12 mg/kg/injection, schedule: Q04DX003 (ip), vehicle: saline 97 % of control | dose: 4.0 mg/kg/injection, schedule: Q01DX009 (ip), vehicle: saline 98 % of control | dose: 6.25 mg/kg/injection, schedule: Q01DX009 (ip), vehicle: saline 107 % of control and 122 % of control | dose: 6.25 mg/kg/injection, schedule: Q04DX003 (ip), vehicle: saline 105 % of control and 120 % of control | dose: 8.0 mg/kg/injection, schedule: Q01DX009 (ip), vehicle: saline 96 % of control | dose: 12.5 mg/kg/injection, schedule: Q01DX001 (ip), vehicle: saline 106 % of control | dose: 12.5 mg/kg/injection, schedule: Q01DX009 (ip), vehicle: saline 114 % of control | dose: 12.5 mg/kg/injection, schedule: Q04DX003 (ip), vehicle: saline 103 % of control and 117 % of control | dose: 16.0 mg/kg/injection, schedule: Q01DX009 (ip), vehicle: saline 100 % of control | dose: 18.75 mg/kg/injection, schedule: Q01DX001 (ip), vehicle: saline 100 % of control | dose: 25.0 mg/kg/injection, schedule: Q01DX001 (ip), vehicle: saline 120 % of control | dose: 25.0 mg/kg/injection, schedule: Q04DX003 (ip), vehicle: saline 95 % of control and 119 % of control | dose: 37.5 mg/kg/injection, schedule: Q01DX001 (ip), vehicle: saline 120 % of control | [7] 101 % of control | dose: 50.0 mg/kg/injection, schedule: Q04DX003 (ip), vehicle: saline 101 % of control | dose: 75.0 mg/kg/injection, schedule: Q01DX001 (ip), vehicle: saline 88 % of control | [8] 118 % of control

O=C(O)C1(Br)CC12c1ccccc1-c1ccccc12 (stereo unspecified)
inactive: dose: 100.0 mg/kg/injection, schedule: Q01DX001 (ip), vehicle: acetone 92 % of control | dose: 200.0 mg/kg/injection, schedule: Q01DX001 (ip), vehicle: acetone 95 % of control

Cc1cc(C)c(NC(=O)CC#N)c(C)c1
inactive: dose: 100.0 mg/kg/injection, schedule: Q04DX002 (ip), vehicle: saline with Tween-80 90 % of control | dose: 200.0 mg/kg/injection, schedule: Q04DX002 (ip), vehicle: saline with Tween-80 90 % of control | dose: 400.0 mg/kg/injection, schedule: Q04DX002 (ip), vehicle: saline with Tween-80 90 % of control

COc1ccc(NC(=O)Nc2ccccc2C(N)=O)cc1
inactive: [3] 93 % of control | [20] 93 % of control | [21] 96 % of control

COc1ccc([N+](=O)[O-])cc1NC(=O)Nc1ccc(N(C)C(C)=O)cc1
inactive: [3] 105 % of control | [20] 111 % of control | [21] 101 % of control

COc1cc(C[N+]23CC[N+](Cc4cc(OC)c(OC)c(OC)c4)(CC2)C3)cc(OC)c1OC
inactive: [8] 101 % of control | [9] 98 % of control | [10] 95 % of control

O=Cc1ccc(OC(=O)Nc2ccccc2)cc1
inactive: [16] 92 % of control | [22] 105 % of control | [17] 87 % of control | [23] 94 % of control | [24] 93 % of control

O=C(Nc1ccccc1)c1ccco1
inactive: [3] 102 % of control | [20] 102 % of control | [18] 102 % of control | [21] 100 % of control | [11] 98 % of control | [19] 91 % of control

O=S1c2ccccc2S(=O)c2ccccc21 (stereo unspecified)
inactive: [22] 96 % of control | [23] 91 % of control | [24] 89 % of control

Cc1ccc(S(=O)(=O)O/N=C(/C#N)c2ccccc2)cc1
inactive: [18] 111 % of control | [11] 97 % of control | [19] 101 % of control

CCCCCC/C(=C\c1ccc(O)cc1)C(=O)O
inactive: [12] 97 % of control | [13] 103 % of control | [14] 105 % of control | [15] 100 % of control

O=C(C[n+]1ccc2c([N+](=O)[O-])cccc2c1)c1ccccc1
inactive: [1] 98 % of control | [2] 105 % of control | [4] 103 % of control | [6] 96 % of control
